The text below walks through data of patent publication US20260232671A1, “PHARMACEUTICAL COMPOSITION FOR LOCAL ADMINISTRATION, PREPARATION METHOD THEREFOR, AND USE THEREOF” (priority 2023, published 2026).

Series [1] can be described thus: Preparation of solutions: clear or turbid phenomenon in solvent mixtures. It is filed as physicochemical.
The test system of series [2] is freshly excised skin samples from Bama miniature pigs. The experiment in a line: IVPT, Franz diffusion cells, Example 12. It is filed as in vitro ADME. The conditions noted are these: penetration enhancer 7% in 1% solution, compared with the solution in the blank group. How it is done: The penetrability of the API in the topical formulations was studied using freshly excised skin samples from Bama miniature pigs mounted in Franz diffusion cells. The fresh skin of Bama miniature pigs was depilated and then stored at −20° C. for later use. On the morning of the experiment, the skin was taken out and thawed, and after the transepidermal water loss value of the skin was detected to be less than 30, the skin was ready for use. The skin was cut to a size suitable for placing the pig skin samples between the donor and receiver compartments, and the pig skin samples were placed between the donor and receiver compartments of the Franz diffusion cell. About 60 mg of the sample was evenly applied to the pig skin. The opening of the Franz cell was 3.14 cm^2. 8.0 mL of a receiver solution was used. At 0.5 h, 2 h, […], and 24 h, 1.0 mL of the sample was removed and replaced with a new receiver solution. At 24 h, the skin was collected. The pig skin was treated, the epidermal and dermis layers were separated and extracted with a skin extract solution, and the residual drug amount, drug concentrations in the epidermal and dermis layers, and drug penetration concentration were detected by HPLC.

As to `COc1nsc(NC(=O)N2C[C@H]3CC(N(C)c4ncnc5[nH]ccc45)C[C@H]3C2)n1` (stereo partly drawn) [Active ingredient in free base form, (3aR,5s,6aS)—N-(3-methoxy-1,2,4-thiadiazol-5-yl)-5-(methyl(7H-pyrrolo[2,3-d]pyrimidin-4-yl)amino)hexahydrocyclopenta[c]pyrrole-2(1H)-carboxamide], the “preparation of a clear solution” value in series [1] (concentration of dimethyl sulfoxide maintained at a high level, addition of a trace amount of water) is “failed to prepare a clear solution above 1% concentration”. Moreover, the “state of the solutions” value in series [1] (concentration of the active ingredient 1%, dimethyl sulfoxide replaced with ethanol, propylene glycol, polyethylene glycol 400, or dimethylformamide) was “suspensions”. In addition, the Phenomenon result in series [1] (mass %: active ingredient 1, diethylene glycol monoethyl ether 40, dimethylformamide 45, propylene glycol 14) was “Turbid”; in series [1] (mass %: active ingredient 1, diethylene glycol monoethyl ether 40, ethanol 50, propylene glycol 9), “Turbid”; in series [1] (mass %: active ingredient 1, diethylene glycol monoethyl ether 40, polyethylene glycol 400 59) it was “Turbid”; in series [1] (mass %: active ingredient 1, diethylene glycol monoethyl ether 40, propylene glycol 59) it was “Turbid”; in series [1] (mass %: active ingredient 1, dimethyl sulfoxide 10, diethylene glycol monoethyl ether 40, polyethylene glycol 400 49), “Turbid”; in series [1] (mass %: active ingredient 1, dimethyl sulfoxide 35, diethylene glycol monoethyl ether 10, glycerol 20, propylene glycol 34), “Clear”. In addition, the Phenomenon result is “Clear” in series [1] (mass %: active ingredient 1, dimethyl sulfoxide 35, diethylene glycol monoethyl ether 30, glycerol 20, propylene glycol 14); “Turbid” in series [1] (mass %: active ingredient 1, dimethyl sulfoxide 40, diethylene glycol monoethyl ether 15, glycerol 20, propylene glycol 14, water 10); “Turbid” in series [1] (mass %: active ingredient 1, dimethyl sulfoxide 40, diethylene glycol monoethyl ether 15, propylene glycol 14, water 30); “Turbid” in series [1] (mass %: active ingredient 1, dimethyl sulfoxide 40, diethylene glycol monoethyl ether 35, propylene glycol 14, water 10); “Clear” in series [1] (mass %: active ingredient 1, dimethyl sulfoxide 40, diethylene glycol monoethyl ether 40, glycerol 5, propylene glycol 14); “Turbid” in series [1] (mass %: active ingredient 1, dimethylformamide 45, propylene glycol 54). For the same compound, the Phenomenon result in series [1] (mass %: active ingredient 1, ethanol 45, propylene glycol 54) is “Turbid”; in series [1] (mass %: active ingredient 1.5, dimethyl sulfoxide 45, diethylene glycol monoethyl ether 40, propylene glycol 13.5), “Clear”; in series [1] (mass %: active ingredient 2, dimethyl sulfoxide 45, diethylene glycol monoethyl ether 40, propylene glycol 12), “Clear”.
As to `CC(O)C(=O)O` (stereo not shown) [lactic acid], the skin penetration-enhancing effect result in series [2] is “relatively good skin penetration-enhancing effect”.
On the same count and under the same terms, as for propylene glycol monocaprylate, the entry is “certain skin penetration-enhancing effect”.
